Where a chain is given by its changes, count along the chain named.
How the values were obtained:
[1] = collected from the literature; cited from earlier work
human OCT2 = biological target: T1, human OCT2 (Homo sapiens, UniProt O15244, S270A); assay: ASP+ uptake inhibition in HEK293 cells stably expressing OCT2; details: for inhibition of renal OCT2 and MATE1 compared to hepatic OCT1: concentration-dependent inhibition, Figure 4C; for inhibition of OCT2 mediated transport: ASP+ 5 µM
T1 sequence (O15244 1-555 S270A): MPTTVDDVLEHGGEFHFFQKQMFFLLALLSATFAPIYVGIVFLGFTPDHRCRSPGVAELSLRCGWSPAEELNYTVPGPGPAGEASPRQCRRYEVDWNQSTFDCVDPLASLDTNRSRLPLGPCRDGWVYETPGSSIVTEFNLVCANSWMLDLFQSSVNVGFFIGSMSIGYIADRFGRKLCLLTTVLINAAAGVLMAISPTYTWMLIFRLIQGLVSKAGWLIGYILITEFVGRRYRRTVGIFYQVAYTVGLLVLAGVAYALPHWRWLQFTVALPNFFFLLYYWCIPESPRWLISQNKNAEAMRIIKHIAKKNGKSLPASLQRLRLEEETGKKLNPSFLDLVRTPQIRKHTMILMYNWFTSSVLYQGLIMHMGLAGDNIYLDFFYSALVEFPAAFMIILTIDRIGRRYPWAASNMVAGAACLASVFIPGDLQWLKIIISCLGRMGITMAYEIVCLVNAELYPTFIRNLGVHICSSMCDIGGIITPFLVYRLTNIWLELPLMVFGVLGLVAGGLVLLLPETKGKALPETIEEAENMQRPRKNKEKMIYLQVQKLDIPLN

MATE2-K = MATE2-K (Homo sapiens, UniProt Q86VL8); assay: ASP+ uptake inhibition in HEK293 cells stably expressing MATE2-K; format: cell-based
human OCT1 = biological target: T2, human OCT1 (Homo sapiens, UniProt O15245); details: screen at 20 µM
T2 sequence (O15245 1-554): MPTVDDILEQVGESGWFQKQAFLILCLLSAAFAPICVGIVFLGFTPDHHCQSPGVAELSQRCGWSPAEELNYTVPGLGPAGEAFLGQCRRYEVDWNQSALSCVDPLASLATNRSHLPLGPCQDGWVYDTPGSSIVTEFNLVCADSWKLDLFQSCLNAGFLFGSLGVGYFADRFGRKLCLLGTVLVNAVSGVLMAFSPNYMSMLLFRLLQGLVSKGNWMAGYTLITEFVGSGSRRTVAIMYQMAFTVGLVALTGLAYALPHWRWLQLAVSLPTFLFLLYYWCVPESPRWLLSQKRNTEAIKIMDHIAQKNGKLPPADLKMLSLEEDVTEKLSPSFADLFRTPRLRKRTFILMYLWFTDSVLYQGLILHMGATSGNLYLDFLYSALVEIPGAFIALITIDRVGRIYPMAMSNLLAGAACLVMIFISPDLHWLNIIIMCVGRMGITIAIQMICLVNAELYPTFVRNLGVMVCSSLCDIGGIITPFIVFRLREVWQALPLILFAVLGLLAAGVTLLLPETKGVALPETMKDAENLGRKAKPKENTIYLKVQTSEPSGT

MATE1 = biological target: T3, MATE1 (Homo sapiens, UniProt Q96FL8); assay: ASP+ uptake inhibition in HEK293 cells stably expressing MATE1; format: cell-based; details: for inhibition potency for MATE1 versus other transporters of the panel: concentration-dependent inhibition, Figure 4C
T3 sequence (Q96FL8 1-570): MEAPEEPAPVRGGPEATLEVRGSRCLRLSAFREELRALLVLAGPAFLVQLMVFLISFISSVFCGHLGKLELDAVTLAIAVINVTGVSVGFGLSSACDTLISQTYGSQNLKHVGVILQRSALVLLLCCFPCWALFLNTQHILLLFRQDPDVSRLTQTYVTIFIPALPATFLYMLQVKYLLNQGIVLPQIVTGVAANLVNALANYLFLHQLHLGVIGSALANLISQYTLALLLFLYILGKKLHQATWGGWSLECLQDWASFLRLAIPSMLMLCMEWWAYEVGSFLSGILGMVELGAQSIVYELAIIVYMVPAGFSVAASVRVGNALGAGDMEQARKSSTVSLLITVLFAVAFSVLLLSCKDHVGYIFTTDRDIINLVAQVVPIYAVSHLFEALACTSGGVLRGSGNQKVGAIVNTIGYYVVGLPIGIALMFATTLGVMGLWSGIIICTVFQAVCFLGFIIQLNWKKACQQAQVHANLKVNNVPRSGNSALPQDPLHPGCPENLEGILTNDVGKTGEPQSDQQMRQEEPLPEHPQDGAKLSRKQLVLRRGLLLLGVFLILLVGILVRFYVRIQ

OCT2-A270S = biological target: T4, OCT2-A270S (Homo sapiens, UniProt O15244); assay: ASP+ uptake inhibition in HEK293 cells stably expressing OCT2-A270S; format: cell-based; details: for affinity towards OCT2-A270S compared to reference protein: concentration-dependent inhibition, Figure 4C
T4 sequence (O15244 1-555): T1 sequence (O15244 1-555 S270A) with A270S

Sequence of MATE2-K (Q86VL8 1-566 isoform Q86VL8-3): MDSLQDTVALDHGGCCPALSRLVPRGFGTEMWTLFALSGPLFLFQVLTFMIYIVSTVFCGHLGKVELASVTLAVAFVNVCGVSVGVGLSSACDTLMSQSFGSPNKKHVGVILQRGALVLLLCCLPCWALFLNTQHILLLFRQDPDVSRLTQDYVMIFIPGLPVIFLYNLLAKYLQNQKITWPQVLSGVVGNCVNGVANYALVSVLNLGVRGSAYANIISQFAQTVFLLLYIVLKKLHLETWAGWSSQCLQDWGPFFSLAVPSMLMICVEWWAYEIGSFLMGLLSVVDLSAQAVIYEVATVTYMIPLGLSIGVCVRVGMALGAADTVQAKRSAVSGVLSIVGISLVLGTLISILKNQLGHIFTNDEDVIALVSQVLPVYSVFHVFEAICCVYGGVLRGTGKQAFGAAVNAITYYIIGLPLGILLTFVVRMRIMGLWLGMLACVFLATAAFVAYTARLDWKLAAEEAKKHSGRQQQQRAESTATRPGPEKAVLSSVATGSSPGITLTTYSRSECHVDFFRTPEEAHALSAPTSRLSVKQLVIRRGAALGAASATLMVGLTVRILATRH

CC(C)N(CCC(C(N)=O)(c1ccccc1)c1ccccn1)C(C)C (stereo not drawn) [Disopyramide]
PB, plasma protein binding [1]: 50%

COc1cc(C(=O)NS(=O)(=O)c2ccccc2C)ccc1Cc1cn(C)c2ccc(NC(=O)OC3CCCC3)cc12 [zafirlukast]
inhibition in specificity screen (OCT2) (human OCT2; screen at 20 µM): showed affinity for all four organic cation transporters
inhibition in specificity screen (MATE2-K) (MATE2-K; screen at 20 µM): showed affinity for all four organic cation transporters
inhibition in specificity screen (OCT1) (human OCT1): showed affinity for all four organic cation transporters
inhibition in specificity screen (MATE1) (MATE1; screen at 20 µM): showed affinity for all four organic cation transporters

Cc1nccn1CC1CCc2c(c3ccccc3n2C)C1=O (stereo not drawn) [Ondansetron]
inhibition of renal OCT2 and MATE1 compared to hepatic OCT1 (human OCT2): preferential inhibition of the renal transporters OCT2 and MATE1 compared to the hepatic OCT1
inhibition of transporter activity (MATE2-K; inhibitor 250 µM): complete inhibition of transporter activity
affinity towards OCT2-A270S compared to reference protein (OCT2-A270S): lower affinity towards the genetic variant OCT2-A270S than to the reference protein
inhibition potency for MATE1 versus other transporters of the panel (MATE1): considerably higher inhibition potency for MATE1 than for the other transporters in the panel

CN(C)c1ccc(C=Cc2cc[n+](C)cc2)cc1 [ASP^+, 4-(4-(dimethylamino)styryl)-N-methylpyridinium]
Km (human OCT2; read-out: Km of ASP+ transport, OCT2 specific uptake, HEK293 cells): 36.4 ± 6.8 µM

CN(C)CCCN1c2ccccc2CCc2ccccc21 [Imipramine]
inhibition of renal OCT2 and MATE1 compared to hepatic OCT1 (human OCT2): preferential inhibition of the renal transporters OCT2 and MATE1 compared to the hepatic OCT1
affinity towards OCT2-A270S compared to reference protein (OCT2-A270S): lower affinity towards the genetic variant OCT2-A270S than to the reference protein
PB, plasma protein binding [1]: 90%

CN/C(=N\CCSCc1nc[nH]c1C)NC#N [Cimetidine]
inhibition of OCT2 mediated transport (human OCT2; inhibitor 20 µM): partial
inhibition of OCT2 mediated transport (human OCT2; inhibitor 500 µM): complete inhibition of transporter activity
inhibition of transporter activity (OCT2-A270S; inhibitor 500 µM): complete inhibition of transporter activity
inhibition potency for MATE1 versus other transporters of the panel (MATE1): considerably higher inhibition potency for MATE1 than for the other transporters in the panel
inhibition of transporter activity (MATE1; inhibitor 500 µM): complete inhibition of transporter activity

From PMC3257218 (Journal of Medicinal Chemistry, 2011)
